According to patent US10376520B2, “Methods for the treatment of cardiovascular disorders” (Galapagos NV, priority 2015, dated 2019):

System: RA patients
Experiment: Total cholesterol determination, Study 2 (RA patients, monotherapy with Compound 1)
Type: in vivo, human
From the text: Randomized, double-blind, placebo-controlled, multicenter, phase IIb dose finding study of Compound 1 (dosed as a [Compound 1:HCl:3H2O]) administered for 24 weeks as monotherapy to subjects with moderately to severely active rheumatoid arthritis who have an inadequate response to methotrexate alone
Double-blind, placebo-controlled, monotherapy study in subjects with moderately to severely active RA who have an inadequate response to methotrexate (MTX) (oral or parenteral).
280 subjects randomized to one of 3 doses of Compound 1 (dosed as a [Compound 1:HCl:3H2O]) or to placebo, given once daily (q.d.).
Twelve weeks of treatment with Compound 1 (dosed as a [Compound 1:HCl:3H2O]) at 50 mg, 100 mg, or 200 mg q.d.; or placebo. At Week 12, all subjects on placebo and the subjects on the 50 mg dose who have not achieved 20% improvement in swollen joint count (SJC66) and tender joint count (TJC68) will be assigned to 100 mg q.d. in a blinded fashion and will continue treatment until Week 24. Subjects in the other groups will maintain their randomized treatment until Week 24.
This method is based on the determination of Δ^4 cholestenone after enzymatic cleavage of the cholesterol ester by cholesterol esterase, conversion of cholesterol by cholesterol oxidase, and subsequent measurement by the Trinder reaction of the hydrogen peroxide formed (Allain et al., 1974).
Cholesterol esters are cleaved by the action of cholesterol esterase to yield free cholesterol and fatty acids. Cholesterol oxidase then catalyzes the oxidation of cholesterol to cholest-4-en-3-one and hydrogen peroxide. In the presence of peroxidase, the hydrogen peroxide formed effects the oxidative coupling of phenol and 4-aminophenazone to form a red quinone-imine dye. The color intensity of the dye formed is directly proportional to the cholesterol concentration. It is determined by measuring the increase in absorbance.
Human serum and plasma samples cholesterol determination was done on a Roche/Hitachi Cobas c 701/702 system which automatically calculate the analyte concentration of each sample.

[1] = 50 mg q.d. non responders switching to 100 mg q.d. at week 12, week 1
[2] = 50 mg q.d. non responders switching to 100 mg q.d. at week 12, week 2
[3] = 50 mg q.d. non responders switching to 100 mg q.d. at week 12, week 4
[4] = 50 mg q.d. non responders switching to 100 mg q.d. at week 12, week 8
[5] = 50 mg q.d. non responders switching to 100 mg q.d. at week 12, week 12
[6] = 50 mg q.d. non responders switching to 100 mg q.d. at week 12, week 16
[7] = 50 mg q.d. non responders switching to 100 mg q.d. at week 12, week 20
[8] = 50 mg q.d. non responders switching to 100 mg q.d. at week 12, week 24

## O=C(Nc1nc2cccc(-c3ccc(CN4CCS(=O)(=O)CC4)cc3)n2n1)C1CC1 [Compound 1, cyclopropanecarboxylic acid {5-[4-(1,1-dioxo-thiomorpholin-4-ylmethyl)-phenyl]-[1,2,4]triazolo[1,5-a]pyridin-2yl}-amide]
[1]
  [total cholesterol] Mean percentage CFB - 24 weeks results: 4.56%
  [total cholesterol] Median percentage CFB - 24 weeks results: 2.94%
[2]
  [total cholesterol] Mean percentage CFB - 24 weeks results: 3.50%
  [total cholesterol] Median percentage CFB - 24 weeks results: 2.00%
[3]
  [total cholesterol] Mean percentage CFB - 24 weeks results: 7.51%
  [total cholesterol] Median percentage CFB - 24 weeks results: 6.58%
[4]
  [total cholesterol] Mean percentage CFB - 24 weeks results: 5.10%
  [total cholesterol] Median percentage CFB - 24 weeks results: 2.88%
[5]
  [total cholesterol] Mean percentage CFB - 24 weeks results: 5.83%
  [total cholesterol] Median percentage CFB - 24 weeks results: 6.79%
[6]
  [total cholesterol] Mean percentage CFB - 24 weeks results: 9.72%
  [total cholesterol] Median percentage CFB - 24 weeks results: 11.41%
[7]
  [total cholesterol] Mean percentage CFB - 24 weeks results: 9.75%
  [total cholesterol] Median percentage CFB - 24 weeks results: 7.07%
[8]
  [total cholesterol] Mean percentage CFB - 24 weeks results: 10.66%
  [total cholesterol] Median percentage CFB - 24 weeks results: 10.65%
50 mg q.d. responders, week 1
  [total cholesterol] Mean percentage CFB - 24 weeks results: 0.02%
  [total cholesterol] Median percentage CFB - 24 weeks results: 0.35%
50 mg q.d. responders, week 2
  [total cholesterol] Median percentage CFB - 24 weeks results: −0.82%
50 mg q.d. responders, week 4
  [total cholesterol] Mean percentage CFB - 24 weeks results: 1.68%
  [total cholesterol] Median percentage CFB - 24 weeks results: −0.51%
50 mg q.d. responders, week 8
  [total cholesterol] Mean percentage CFB - 24 weeks results: 5.55%
  [total cholesterol] Median percentage CFB - 24 weeks results: 5.74%
50 mg q.d. responders, week 12
  [total cholesterol] Mean percentage CFB - 24 weeks results: 3.59%
  [total cholesterol] Median percentage CFB - 24 weeks results: 1.01%
50 mg q.d. responders, week 16
  [total cholesterol] Mean percentage CFB - 24 weeks results: 5.85%
  [total cholesterol] Median percentage CFB - 24 weeks results: 2.92%
50 mg q.d. responders, week 20
  [total cholesterol] Mean percentage CFB - 24 weeks results: 2.09%
  [total cholesterol] Median percentage CFB - 24 weeks results: 3.75%
50 mg q.d. responders, week 24
  [total cholesterol] Mean percentage CFB - 24 weeks results: 3.49%
  [total cholesterol] Median percentage CFB - 24 weeks results: 5.44%
50 mg q.d., week 1
  [total cholesterol] Mean percentage CFB - 12 weeks results: 0.96%
  [total cholesterol] Median percentage CFB - 12 weeks results: 2.12%
50 mg q.d., week 2
  [total cholesterol] Mean percentage CFB - 12 weeks results: −0.18%
  [total cholesterol] Median percentage CFB - 12 weeks results: 0.00%
50 mg q.d., week 4
  [total cholesterol] Mean percentage CFB - 12 weeks results: 2.91%
  [total cholesterol] Median percentage CFB - 12 weeks results: 0.00%
50 mg q.d., week 8
  [total cholesterol] Mean percentage CFB - 12 weeks results: 5.45%
  [total cholesterol] Median percentage CFB - 12 weeks results: 4.90%
50 mg q.d., week 12
  [total cholesterol] Mean percentage CFB - 12 weeks results: 4.08%
  [total cholesterol] Median percentage CFB - 12 weeks results: 3.43%
100 mg q.d., week 1
  [total cholesterol] Mean percentage CFB - 12 weeks results: 4.15%
  [total cholesterol] Mean percentage CFB - 24 weeks results: 4.15%
  [total cholesterol] Median percentage CFB - 24 weeks results: 2.38%
100 mg q.d., week 2
  [total cholesterol] Mean percentage CFB - 12 weeks results: 4.96%
  [total cholesterol] Mean percentage CFB - 24 weeks results: 4.96%
  [total cholesterol] Median percentage CFB - 24 weeks results: 2.65%
100 mg q.d., week 4
  [total cholesterol] Mean percentage CFB - 12 weeks results: 8.28%
  [total cholesterol] Mean percentage CFB - 24 weeks results: 8.28%
  [total cholesterol] Median percentage CFB - 24 weeks results: 5.40%
100 mg q.d., week 8
  [total cholesterol] Mean percentage CFB - 12 weeks results: 7.75%
  [total cholesterol] Mean percentage CFB - 24 weeks results: 7.75%
  [total cholesterol] Median percentage CFB - 24 weeks results: 6.08%
100 mg q.d., week 12
  [total cholesterol] Mean percentage CFB - 12 weeks results: 12.45%
  [total cholesterol] Mean percentage CFB - 24 weeks results: 12.45%
  [total cholesterol] Median percentage CFB - 24 weeks results: 6.41%
100 mg q.d., week 16
  [total cholesterol] Mean percentage CFB - 24 weeks results: 10.96%
  [total cholesterol] Median percentage CFB - 24 weeks results: 8.91%
100 mg q.d., week 20
  [total cholesterol] Mean percentage CFB - 24 weeks results: 10.06%
  [total cholesterol] Median percentage CFB - 24 weeks results: 9.85%
100 mg q.d., week 24
  [total cholesterol] Mean percentage CFB - 24 weeks results: 11.75%
  [total cholesterol] Median percentage CFB - 24 weeks results: 10.29%
200 mg q.d., week 1
  [total cholesterol] Mean percentage CFB - 12 weeks results: 5.77%
  [total cholesterol] Mean percentage CFB - 24 weeks results: 5.77%
  [total cholesterol] Median percentage CFB - 24 weeks results: 5.37%
200 mg q.d., week 2
  [total cholesterol] Mean percentage CFB - 12 weeks results: 7.74%
  [total cholesterol] Mean percentage CFB - 24 weeks results: 7.74%
  [total cholesterol] Median percentage CFB - 24 weeks results: 6.90%
200 mg q.d., week 4
  [total cholesterol] Mean percentage CFB - 12 weeks results: 9.35%
